In ChEMBL document CHEMBL3046140, “Design, synthesis, antimicrobial, anticancer evaluation, and QSAR studies of 4-(substituted benzylidene-amino)-1,5-dimethyl-2-phenyl-1,2-dihydropyrazol-3-ones” (Med Chem Res, 2012):

How the values were obtained:
Aspergillus niger [1] = experiment: Fungicidal activity against Aspergillus niger MTCC 8189; format: functional
Candida albicans [2] = experiment: Fungicidal activity against Candida albicans MTCC 227; format: functional
Escherichia coli [3] = experiment: Bactericidal activity against Escherichia coli MTCC 1652; format: functional
Staphylococcus aureus [4] = experiment: Bactericidal activity against Staphylococcus aureus MTCC 2901; format: functional
Bacillus subtilis [5] = experiment: Bactericidal activity against Bacillus subtilis MTCC 2063; format: functional
Aspergillus niger [6] = experiment: Antifungal activity against Aspergillus niger MTCC 8189 after 7 days by tube dilution method; format: functional
Candida albicans [7] = experiment: Antifungal activity against Candida albicans MTCC 227 after 48 hr by tube dilution method; format: functional
Escherichia coli [8] = experiment: Antibacterial activity against Escherichia coli MTCC 1652 after 24 hr by tube dilution method; format: functional
Bacillus subtilis [9] = experiment: Antibacterial activity against Bacillus subtilis MTCC 2063 after 24 hr by tube dilution method; format: functional
Staphylococcus aureus [10] = experiment: Antibacterial activity against Staphylococcus aureus MTCC 2901 after 24 hr by tube dilution method; format: functional
HCT-116 = experiment: Cytotoxicity against Homo sapiens (human) HCT116 cells after 72 hr by MTT assay; format: functional, cell-based; details: HCT-116, 72 h, read-out: pIC50 (converted)
HT-29 = experiment: Cytotoxicity against Homo sapiens (human) HT-29 cells after 72 hr by MTT assay; format: functional, cell-based; details: HT-29, 72 h, read-out: pIC50 (converted)

SMILES | MFC (Aspergillus niger [1]) [uM/ml] | MFC (Candida albicans [2]) [uM/ml] | MBC (Escherichia coli [3]) [uM/ml] | MBC (Staphylococcus aureus [4]) [uM/ml] | MBC (Bacillus subtilis [5]) [uM/ml] | -logMIC (Aspergillus niger [6]) | -logMIC (Candida albicans [7]) | -logMIC (Escherichia coli [8]) | -logMIC (Bacillus subtilis [9]) | -logMIC (Staphylococcus aureus [10]) | IC50 (HCT-116) [µM] | IC50 (HT-29) [µM]
Cc1c(/N=C/c2ccccc2)c(=O)n(-c2ccccc2)n1C | >0.17 | >0.17 | >0.17 | >0.17 | >0.17 | 1.37 | 1.37 | 1.37 | 1.07 | 1.07 | – | –
Cc1c(/N=C/c2ccc(Cl)cc2)c(=O)n(-c2ccccc2)n1C | 0.15 | >0.15 | >0.15 | >0.15 | >0.15 | 1.42 | 1.42 | 1.12 | 1.12 | 1.12 | – | –
Cc1c(/N=C/c2ccc(O)cc2)c(=O)n(-c2ccccc2)n1C | >0.16 | >0.16 | >0.16 | >0.16 | >0.16 | 1.69 | 1.39 | 1.39 | 1.39 | 1.39 | – | –
COc1ccc(/C=N/c2c(C)n(C)n(-c3ccccc3)c2=O)cc1 | >0.16 | >0.16 | >0.16 | >0.16 | >0.16 | 1.41 | 1.41 | 1.41 | 1.11 | 1.11 | – | –
COc1ccc(/C=N/c2c(C)n(C)n(-c3ccccc3)c2=O)cc1OC | >0.14 | >0.14 | >0.14 | >0.14 | >0.14 | 1.45 | 1.45 | 1.45 | 1.15 | 1.15 | – | –
COc1cc(/C=N/c2c(C)n(C)n(-c3ccccc3)c2=O)cc(OC)c1OC | 0.13 | >0.13 | >0.13 | >0.13 | >0.13 | 1.48 | 1.48 | 1.48 | 1.48 | 1.48 | – | –
Cc1c(/N=C/c2cccc(Cl)c2)c(=O)n(-c2ccccc2)n1C | >0.15 | >0.15 | >0.15 | >0.15 | >0.15 | 1.42 | 2.02 | 2.02 | 1.72 | 1.72 | – | –
Cc1c(/N=C/c2ccc(Cl)cc2Cl)c(=O)n(-c2ccccc2)n1C | >0.14 | >0.14 | >0.14 | >0.14 | >0.14 | 1.46 | 1.46 | 1.46 | 1.16 | 1.16 | – | –
COc1cccc(/C=N/c2c(C)n(C)n(-c3ccccc3)c2=O)c1O | >0.15 | >0.15 | >0.15 | >0.15 | >0.15 | 1.13 | 1.43 | 1.43 | 1.13 | 1.13 | 89.1 | –
Cc1c(/N=C/c2cccc([N+](=O)[O-])c2)c(=O)n(-c2ccccc2)n1C | >0.15 | >0.15 | >0.15 | >0.15 | >0.15 | 1.43 | 1.43 | 1.43 | 1.43 | 1.13 | – | –
COc1ccccc1/C=N/c1c(C)n(C)n(-c2ccccc2)c1=O | >0.16 | >0.16 | >0.16 | >0.16 | >0.16 | 1.41 | 1.41 | 1.41 | 1.41 | 1.41 | – | 70.8
COc1cccc(/C=N/c2c(C)n(C)n(-c3ccccc3)c2=O)c1 | 0.16 | >0.16 | >0.16 | >0.16 | >0.16 | 1.41 | 1.41 | 1.41 | 1.11 | 1.11 | – | –
Cc1c(/N=C/c2ccccc2Cl)c(=O)n(-c2ccccc2)n1C | >0.15 | >0.15 | >0.15 | >0.15 | >0.15 | 1.42 | 1.42 | 1.42 | 1.42 | 1.12 | – | –
Cc1c(/N=C/c2cccc(O)c2)c(=O)n(-c2ccccc2)n1C | >0.16 | >0.16 | >0.16 | >0.16 | >0.16 | 1.39 | 1.39 | 1.39 | 1.39 | 1.09 | – | –
CCOc1cc(/C=N/c2c(C)n(C)n(-c3ccccc3)c2=O)ccc1O | >0.14 | >0.14 | >0.14 | >0.14 | >0.14 | 1.45 | 1.45 | 1.45 | 1.15 | 1.15 | – | –
OC(Cn1cncn1)(Cn1cncn1)c1ccc(F)cc1F [FLUCONAZOLE] | 0.04 | 0.04 | – | – | – | 2.64 | 2.64 | – | – | – | – | –
O=c1[nH]cc(F)c(=O)[nH]1 [FLUOROURACIL] | – | – | – | – | – | – | – | – | – | – | 45.7 | 85.1
CCn1cc(C(=O)O)c(=O)c2cc(F)c(N3CCNCC3)cc21 [NORFLOXACIN] | – | – | 0.019 | 0.019 | 0.019 | – | – | 2.61 | 2.61 | 2.61 | – | –
